Measurements reported in BigSolDB 2.1.

For `Nc1ccc(C(=O)[O-])cc1.[K+]`, the solubility (mole fraction) (in DMF, 283.15 K) was 0.00143, the solubility (mole fraction) (in DMF, 293.15 K) was 0.00146 and the solubility (mole fraction) (in DMF, 303.15 K) was 0.00153. The solubility (mole fraction) (in DMF, 313.15 K) was 0.00154, the solubility (mole fraction) (in DMF, 323.15 K) was 0.00159 and the solubility (mole fraction) (in DMF, 333.15 K) was 0.00161. It also gave a solubility (mole fraction) (in ethanol, 283.15 K) of 0.00224, a solubility (mole fraction) (in ethanol, 293.15 K) of 0.00232 and a solubility (mole fraction) (in ethanol, 303.15 K) of 0.00238. It also gave a solubility (mole fraction) (in ethanol, 313.15 K) of 0.00244, a solubility (mole fraction) (in ethanol, 323.15 K) of 0.0025 and a solubility (mole fraction) (in ethanol, 333.15 K) of 0.00252. For the same molecule, the solubility (mole fraction) (in ethyl acetate, 283.15 K) was 0.000198, the solubility (mole fraction) (in ethyl acetate, 293.15 K) was 0.000205 and the solubility (mole fraction) (in ethyl acetate, 303.15 K) was 0.000211. The solubility (mole fraction) (in ethyl acetate, 313.15 K) was 0.000216, the solubility (mole fraction) (in ethyl acetate, 323.15 K) was 0.000219 and the solubility (mole fraction) (in ethylene glycol, 283.15 K) was 0.0973. The solubility (mole fraction) (in ethylene glycol, 293.15 K) was 0.115, the solubility (mole fraction) (in ethylene glycol, 303.15 K) was 0.127 and the solubility (mole fraction) (in ethylene glycol, 313.15 K) was 0.145. The solubility (mole fraction) (in ethylene glycol, 323.15 K) was 0.156, the solubility (mole fraction) (in ethylene glycol, 333.15 K) was 0.172 and the solubility (mole fraction) (in formamide, 283.15 K) was 0.0794. For the same molecule, the solubility (mole fraction) (in formamide, 293.15 K) was 0.0929, the solubility (mole fraction) (in formamide, 303.15 K) was 0.104 and the solubility (mole fraction) (in formamide, 313.15 K) was 0.112. For the same molecule, the solubility (mole fraction) (in formamide, 323.15 K) was 0.119, the solubility (mole fraction) (in formamide, 333.15 K) was 0.125 and the solubility (mole fraction) (in isopropanol, 283.15 K) was 0.000366. The solubility (mole fraction) (in isopropanol, 293.15 K) was 0.000416, the solubility (mole fraction) (in isopropanol, 303.15 K) was 0.000486 and the solubility (mole fraction) (in isopropanol, 313.15 K) was 0.000496. The solubility (mole fraction) (in isopropanol, 323.15 K) was 0.00052, the solubility (mole fraction) (in isopropanol, 333.15 K) was 0.000556 and the solubility (mole fraction) (in n-propanol, 283.15 K) was 0.000852. The solubility (mole fraction) (in n-propanol, 293.15 K) was 0.000874, the solubility (mole fraction) (in n-propanol, 303.15 K) was 0.000884 and the solubility (mole fraction) (in n-propanol, 313.15 K) was 0.000929. The solubility (mole fraction) (in n-propanol, 323.15 K) was 0.000952, the solubility (mole fraction) (in n-propanol, 333.15 K) was 0.000981 and the solubility (mole fraction) (in water, 278.15 K) was 0.092. It also gave a solubility (mole fraction) (in water, 288.15 K) of 0.11, a solubility (mole fraction) (in water, 298.15 K) of 0.125 and a solubility (mole fraction) (in water, 308.15 K) of 0.144. It also gave a solubility (mole fraction) (in water, 318.15 K) of 0.161, a solubility (mole fraction) (in water, 328.15 K) of 0.177 and a solubility (mole fraction) (in water, 338.15 K) of 0.194.
